In patent US8685924B2, “Preventives/remedies for stress urinary incontinence and method of screening the same” (Takeda Pharmaceutical Company Limited, priority 2004, dated 2014):

Columns and labels:
Format in all cases: in vivo, rat
[1] = tested on: urethane-anesthetized female rats; assay: Leak point pressure by intravesical pressure-clamp method (Example 6); conditions: for leak point pressure after drug administration / leak point pressure before drug administration: i.v., mean ± SEM; for leak point pressure after drug administration: 10 min later; for leak point pressure before drug administration: baseline
Experimental: SD female rats (body weight 180-350 g) were anesthetized with urethane (Wako Pure Chemical Industries, Ltd.), and the spinal cord was transected at T8-9 level to eliminate the reflex voiding.
Halothane (Takeda Pharmaceutical Company Limited) anesthesia was added when necessary during operation. After laparotomy, the bladder neck was tied with a suture thread and then a catheter (PE-90, Clay Adams) was inserted into the bladder and secured with a ligature. The other end of the bladder catheter was connected to a pressure transducer and saline storage reservoir (60 ml syringe) via a three-way cock.
Changes in the intravesical pressure measured by a transducer were input in a computer via an amplifier (blood pressure amplification unit AP-641G; NIHON KODEN) and an analog-to-digital cinverter (MP-100; biopack) and recorded on a hard disc. The intravesical pressure was raised for 90 sec by setting the saline storage reservoir at a given height, and the presence or absence of saline leakage from the urethral orifice was observed. The intravesical pressure was raised every 2.5 cmH2O and, after 90 sec observation period, the intravesical pressure was once returned to 0 cmH2O, after which the next step was performed. The intravesical pressure at which the saline leakage from the urethral orifice was observed was taken as the leak point pressure. The measurement of the leak point pressure was repeated and the average of the final three measures was taken as the value before the drug administration. The drug was intravenously administered, and the leak point pressure was measured again 10 min later. The drug was dissolved in DMA-PEG400 (1:1), and administered at 0.5 ml/kg.

[2] = tested on: urethane-anesthetized female rats; assay: Antagonism of the leak point pressure increase by WAY-161503 / WAY-163909, direct bladder compression method (Example 4); conditions: agonist 0.3 mg/kg, i.v., antagonist: solvent, mean ± SEM
Experimental: (§1) SD female rats (body weight 180-350 g) were anesthetized with urethane (Wako Pure Chemical Industries, Ltd.), and halothane (Takeda Pharmaceutical Company Limited) anesthesia was added when necessary during operation.
(§2) The spinal cord was transected at T8-9 level to eliminate the reflex voiding. The lower abdomen was incised in the median line, a catheter for intravesical pressure measurement (PE-90, Clay Adams) was inserted into the bladder and secured with a ligature, and the intravesical pressure was measured via a pressure transducer. Urine was emptized in advance by bilaterally pressing the bladder with two swabs, and a 0.1% Evans blue (Merck) solution (0.4 mL) was injected into the bladder. The bladder was gradually compressed bilaterally with two swabs, and the intravesical pressure upon saline leakage from the urethral orifice was measured and defined as a leak point pressure. The measurement of the leak point pressure was repeated, and the average value of the final five stable measures was taken as the value before drug administration. Thereafter, the drug was intravenously administered, the leak point pressure was measured again 20 min later, and the value after the drug administration was determined. DOI, mCPP and eltoprazine were dissolved in saline, and other drugs were dissolved in DMA/PEG400 (1:1), and intravenously administered at 1 ml/kg and 0.5 mg/kg, respectively. Depending on the experiment, RS-102221 or SB221284 (showing serotonin 5-HT2C receptor antagonist activity) was administered, 5 min later, WAY-161503 or WAY-163909 was administered, leak point pressure was measured 10 min later, and a competitive assay with the action of WAY-161503 or WAY-163909 was performed. RS-102221 and SB221284 were both dissolved in DMA/PEG400 (1:1), and intravenously administered at 0.5 ml/kg.

[3] = tested on: urethane-anesthetized female rats; assay: Leak point pressure by abdominal wall-electrically stimulating method, serotonin 5-HT receptor agonists (Example 3); conditions: for leak point pressure after drug administration / leak point pressure increase / leak point pressure before drug administration: i.v., mean ± SEM; for leak point pressure before drug administration: baseline
Experimental: (§3) SD female rats (body weight 180-350 g) were anesthetized with urethane (Wako Pure Chemical Industries, Ltd.), and the spinal cord was transected at T8-9 level to eliminate the reflex voiding. In addition, the nerve to the iliococcygeus muscle/pubococcygeus muscle on the one side was transected. During operation, halothane (Takeda Pharmaceutical Company Limited) anesthesia was added when necessary. A catheter (PE-90, Clay Adams) was inserted into the bladder and secured with a ligature, and the incised part of each of the abdominal muscle and skin was closed with sutures. The abdominal skin near the diaphragm was incised at two left and right positions to newly expose the abdominal muscle. An Evans Blue dye (Merck) solution was injected into the bladder, and the bladder volume was adjusted to 0.2-0.3 ml. The bladder catheter was connected to a pressure transducer, and the signals of the transducer were sent to a computer via an amplifier (blood pressure amplification unit AP-641G; NIHON KOHDEN) and an analog-to-digital converter (BIOPAC; MP100), and recorded on a hard disc. The data were analyzed on a computer using software (BIOPAC; AcqKnowledge). The exposed abdominal muscle was electrostimulated using an electrostimulator (SEN-3301; NIHON KODEN) and an isolator (SS-202J; NIHON KODEN), and the presence or absence of incontinence from the meatus urethra was observed. The electrostimulation was applied at a voltage of 2.5-50 V, duration of 0.5 milisec, and frequency 50 Hz for 1 sec, thereby gradually increasing the intravesical pressure. The peak intravesical pressure during stimulation of the abdominal wall was measured and, of the trials with observed incontinence, the lowest peak intravesical pressure was defined as the leak point pressure. Serotonin 5-HT receptor agonist, WAY-161503 (5-HT2C receptor agonist), WAY-163909 (5-HT2C receptor agonist), DOI (5-HT2A/2B/2C receptor agonist), mCPP (5-HT2B/2C receptor partial agonist), eltoprazine (5-HT1A/1B/2C receptor partial agonist), 8-OH-DPAT (5-HT1A receptor agonist), sumatryptan (5-HT1B/1D receptor agonist) and BW723C86 (5-HT2B receptor agonist) were intravenously administered, and the leak point pressure was compared before and after the administration. DOI, mCPP and eltoprazine were dissolved in saline, and other drugs were dissolved in DMA/PEG400 (1:1), and they were intravenously administered at 1 ml/kg and 0.5 mg/kg, respectively. Depending on the experiment, RS-102221 (serotonin 5-HT2C receptor antagonist) or SB221284 (serotonin 5-HT2B/2C receptor antagonist) was intravenously administered 5 min before WAY-161503 or WAY-163909 administration, and an antagonistic effect against the WAY-161503 or WAY-163909-induced increment of the leak point pressure was examined. RS-102221 and SB221284 were both dissolved in DMA/PEG400 (1:1) and intravenously administered at 0.5 ml/kg.

[4] = tested on: urethane-anesthetized female rats; assay: Antagonism of the leak point pressure increase by WAY-161503 / WAY-163909, abdominal wall-electrically stimulating method (Example 3); conditions: agonist 0.3 mg/kg, i.v., antagonist: solvent, mean ± SEM
Experimental: as §3

[5] = tested on: urethane-anesthetized female rats; assay: Leak point pressure by direct compressing of the bladder (Example 4); conditions: for leak point pressure after drug administration / leak point pressure increase / leak point pressure before drug administration: i.v., mean ± SEM; for leak point pressure after drug administration: 20 min later; for leak point pressure before drug administration: baseline
Experimental: as §1, §2

[6] = tested on: urethane-anesthetized female rats; assay: Leak point pressure by abdominal wall electrostimulation, rats with nerve to iliococcygeus/pubococcygeus muscle transected on one side (Example 2); conditions: for leak point pressure after drug administration / leak point pressure increase / leak point pressure before drug administration: i.v., mean ± SEM; for leak point pressure before drug administration: baseline
Experimental: SD female rats (body weight 180-350 g) were anesthetized with urethane (Wako Pure Chemical Industries, Ltd.), and the spinal cord was cut at T8-9 level to eliminate the reflex voiding. In addition, the nerve to the iliococcygeus muscle/pubococcygeus muscle on the one side was transected. During operation, halothane (Takeda Pharmaceutical Company Limited) anesthesia was added when necessary. A catheter (PE-90, Clay Adams) was inserted into the bladder and secured with a ligature, and the incised part of each of the abdominal muscle and skin was closed with sutures. The abdominal skin near the diaphragm was incised at two left and right positions to newly expose the abdominal muscle. An Evans Blue dye (Merck) solution was injected into the bladder, and the bladder volume was adjusted to 0.2-0.3 ml. The bladder catheter was connected to a pressure transducer, and the signals of the transducer were sent to a computer via an amplifier (blood pressure amplification unit AP-641G; NIHON KOHDEN) and an analog-to-digital converter (BIOPAC; MP100), and recorded on a hard disc. The data were analyzed on a computer using software (BIOPAC; AcqKnowledge). The exposed abdominal muscle was electrostimulated using an electrostimulator (SEN-3301; NIHON KODEN) and an isolator (SS-202J; NIHON KODEN), and the presence or absence of incontinence from the urethral orifice was observed. The electrostimulation was applied at a voltage of 3-50 V, duration of 0.05-0.5 milisec, and frequency 50 Hz for 1 sec, thereby gradually increasing the intravesical pressure. The peak intravesical pressure during stimulation of the abdominal wall was measured and, of the trials with observed incontinence, the lowest peak intravesical pressure was defined as the leak point pressure. The leak point pressure was compared before and after the duloxetine and midodrine administration. Duloxetine was dissolved in […] (DMA)/polyethylene glycol 400 (PEG400) (1:1), and intravenously administered at 0.5 ml/kg. Midodrine (hydrochloride, Sigma) was dissolved in saline and intravenously administered at 1 ml/kg.

C[C@]12CCC(=O)C[C@@H]1CC[C@@H]1[C@@H]2CC[C@]2(C)[C@@H](O)CC[C@@H]12 [DHT, dihydrotestosterone]
leak point pressure after drug administration ([1]; 0.3 mg/kg): 35.5 ± 3.9 cmH2O | leak point pressure after drug administration ([1]; 1 mg/kg): 41.1 ± 3.4 cmH2O | leak point pressure after drug administration ([1]; 3 mg/kg): 36.9 ± 2.1 cmH2O | leak point pressure before drug administration ([1]; dose group 0.3 mg/kg): 32.1 ± 3.9 cmH2O | leak point pressure before drug administration ([1]; dose group 1 mg/kg): 35.7 ± 3.1 cmH2O | leak point pressure before drug administration ([1]; dose group 3 mg/kg): 30.5 ± 2.2 cmH2O | effect on leak point pressure ([1]; intravesical pressure-clamp method): increased the leak point pressure

c1cc2c3c(c1)[C@H]1CCC[C@H]1N3CCNC2 [WAY-163909]
leak point pressure after drug administration [2]: 77.6 ± 3.8 cmH2O | leak point pressure increase [2]: 15.0 ± 1.1 cmH2O | leak point pressure before drug administration ([2]; baseline): 62.6 ± 4.2 cmH2O | leak point pressure after drug administration ([3]; 0.03 mg/kg): 43.0 ± 6.3 cmH2O | leak point pressure increase ([3]; 0.03 mg/kg): 3.5 ± 3.1 cmH2O | leak point pressure after drug administration ([3]; 0.1 mg/kg): 55.5 ± 1.8 cmH2O | leak point pressure increase ([3]; 0.1 mg/kg): 11.1 ± 3.0 cmH2O | leak point pressure after drug administration ([3]; 0.3 mg/kg): 55.9 ± 8.5 cmH2O | leak point pressure increase ([3]; 0.3 mg/kg): 14.4 ± 3.9 cmH2O | leak point pressure after drug administration ([3]; 1 mg/kg): 67.1 ± 5.2 cmH2O | leak point pressure increase ([3]; 1 mg/kg): 24.0 ± 3.1 cmH2O | leak point pressure before drug administration ([3]; dose group 0.03 mg/kg): 39.5 ± 4.3 cmH2O | leak point pressure before drug administration ([3]; dose group 0.1 mg/kg): 44.4 ± 4.5 cmH2O | leak point pressure before drug administration ([3]; dose group 0.3 mg/kg): 41.6 ± 6.0 cmH2O | leak point pressure before drug administration ([3]; dose group 1 mg/kg): 43.1 ± 3.4 cmH2O | dose at which a significant effect on the leak point pressure was afforded ([3]; intravenous administration): not less than 0.1 mg/kg | effect on leak point pressure ([3]; intravenous administration): dose-dependently increased the leak point pressure | leak point pressure after drug administration [4]: 57.6 ± 4.5 cmH2O | leak point pressure increase [4]: 13.7 ± 2.2 cmH2O | leak point pressure before drug administration ([4]; baseline): 43.9 ± 4.3 cmH2O | leak point pressure after drug administration ([5]; 0.03 mg/kg): 73.3 ± 3.9 cmH2O | leak point pressure increase ([5]; 0.03 mg/kg): 6.6 ± 2.2 cmH2O | leak point pressure after drug administration ([5]; 0.1 mg/kg): 76.0 ± 2.7 cmH2O | leak point pressure increase ([5]; 0.1 mg/kg): 11.8 ± 2.0 cmH2O | leak point pressure after drug administration ([5]; 0.3 mg/kg): 69.9 ± 3.5 cmH2O | leak point pressure increase ([5]; 0.3 mg/kg): 17.0 ± 1.8 cmH2O | leak point pressure after drug administration ([5]; 1 mg/kg): 78.7 ± 5.7 cmH2O | leak point pressure increase ([5]; 1 mg/kg): 20.4 ± 4.0 cmH2O | leak point pressure after drug administration ([5]; 3 mg/kg): 78.7 ± 4.7 cmH2O | leak point pressure increase ([5]; 3 mg/kg): 26.0 ± 3.5 cmH2O | leak point pressure before drug administration ([5]; dose group 0.03 mg/kg): 66.6 ± 5.1 cmH2O | leak point pressure before drug administration ([5]; dose group 0.1 mg/kg): 64.2 ± 1.3 cmH2O | leak point pressure before drug administration ([5]; dose group 0.3 mg/kg): 52.9 ± 3.6 cmH2O | leak point pressure before drug administration ([5]; dose group 1 mg/kg): 58.4 ± 2.3 cmH2O | leak point pressure before drug administration ([5]; dose group 3 mg/kg): 52.7 ± 1.4 cmH2O | effect on leak point pressure ([5]; intravenous administration): dose-dependently increased the leak point pressure

COc1ccc(OC)c(C(O)CNC(=O)CN)c1 (centres unmarked) [midodrine]
leak point pressure after drug administration ([6]; 3 mg/kg): 39.5 ± 7.5 cmH2O | leak point pressure increase ([6]; 3 mg/kg): 3.3 ± 4.0 cmH2O | leak point pressure after drug administration ([6]; 10 mg/kg): 45.1 ± 3.8 cmH2O | leak point pressure increase ([6]; 10 mg/kg): 6.1 ± 1.4 cmH2O | leak point pressure before drug administration ([6]; dose group 3 mg/kg): 36.2 ± 4.8 cmH2O | leak point pressure before drug administration ([6]; dose group 10 mg/kg): 38.9 ± 4.5 cmH2O | effect on leak point pressure, comparison before and after administration ([6]; intravenously administered): significant increase in the leak point pressure
